According to PubChem BioAssay (NCI):
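1) Cells in 96-well plates. 2) Compound, 48 h, 5 concentrations. 3) Linear interpolation between surrounding doses. 4) Unreached endpoint = highest concentration. The concentration for full growth arrest is given as TGI.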

What was measured:
Assay in all cases: inhibition of tumour cell growth, NCI panel, 48 h
NCI-H460 lung = tested on: NCI-H460 lung
A498 renal = tested on: A498 renal
SNB-78 CNS = tested on: SNB-78 CNS
A549 NSCLC = tested on: A549 NSCLC
DMS 273 small cell lung = tested on: DMS 273 small cell lung
IGROV1 ovarian = tested on: IGROV1 ovarian
UACC-257 melanoma = tested on: UACC-257 melanoma
HCT-116 colon = tested on: HCT-116 colon
DMS 114 small cell lung = tested on: DMS 114 small cell lung
DLD-1 colon = tested on: DLD-1 colon
TK-10 renal = tested on: TK-10 renal
HL-60(TB) leukemia = tested on: HL-60(TB) leukemia
LXFL 529 NSCLC = tested on: LXFL 529 NSCLC
UACC-62 melanoma = tested on: UACC-62 melanoma
M14 melanoma = tested on: M14 melanoma
SF-295 CNS = tested on: SF-295 CNS
NCI-H522 lung = tested on: NCI-H522 lung
NCI-H226 lung = tested on: NCI-H226 lung
RXF 393 renal = tested on: RXF 393 renal
LOX IMVI melanoma = tested on: LOX IMVI melanoma
MOLT-4 leukemia = tested on: MOLT-4 leukemia
NCI-H23 lung = tested on: NCI-H23 lung
M19-MEL melanoma = tested on: M19-MEL melanoma
HOP-62 NSCLC = tested on: HOP-62 NSCLC
SNB-19 CNS = tested on: SNB-19 CNS
786-0 renal = tested on: 786-0 renal
KM20L2 colon = tested on: KM20L2 colon
MALME-3M melanoma = tested on: MALME-3M melanoma
U251 CNS = tested on: U251 CNS
CAKI-1 renal = tested on: CAKI-1 renal
HCC-2998 colon = tested on: HCC-2998 colon
HCT-15 colon = tested on: HCT-15 colon
SK-MEL-28 melanoma = tested on: SK-MEL-28 melanoma
SF-268 CNS = tested on: SF-268 CNS
SNB-75 CNS = tested on: SNB-75 CNS
OVCAR-5 ovarian = tested on: OVCAR-5 ovarian
SN12C renal = tested on: SN12C renal
RXF-631 renal = tested on: RXF-631 renal
ACHN renal = tested on: ACHN renal
SF-539 CNS = tested on: SF-539 CNS
SK-MEL-2 melanoma = tested on: SK-MEL-2 melanoma
COLO 205 colon = tested on: COLO 205 colon
CCRF-CEM leukemia = tested on: CCRF-CEM leukemia
UO-31 renal = tested on: UO-31 renal
RPMI-8226 leukemia = tested on: RPMI-8226 leukemia
K-562 leukemia = tested on: K-562 leukemia
KM12 colon = tested on: KM12 colon
SW-620 colon = tested on: SW-620 colon
OVCAR-4 ovarian = tested on: OVCAR-4 ovarian
SK-MEL-5 melanoma = tested on: SK-MEL-5 melanoma
HT29 colon = tested on: HT29 colon
SK-OV-3 ovarian = tested on: SK-OV-3 ovarian
EKVX NSCLC = tested on: EKVX NSCLC
XF 498 CNS = tested on: XF 498 CNS
SR leukemia = tested on: SR leukemia
HOP-92 NSCLC = tested on: HOP-92 NSCLC

CCOC(=O)C(=O)Nc1ccc(C)c(C)c1 was tested, and the TGI (NCI-H460 lung) was greater than 100 µM, the TGI (A498 renal) was greater than 100 µM and the TGI (SNB-78 CNS) was greater than 100 µM. It also gave a TGI (A549 NSCLC) greater than 100 µM, a TGI (DMS 273 small cell lung) greater than 100 µM and a TGI (IGROV1 ovarian) greater than 100 µM. For the same molecule, the TGI (UACC-257 melanoma) was greater than 100 µM, the TGI (HCT-116 colon) was greater than 100 µM and the TGI (DMS 114 small cell lung) was greater than 56.5 µM. The TGI (DLD-1 colon) was greater than 100 µM, the TGI (TK-10 renal) was greater than 100 µM and the TGI (HL-60(TB) leukemia) was greater than 100 µM. For the same molecule, the TGI (LXFL 529 NSCLC) was greater than 100 µM, the TGI (UACC-62 melanoma) was greater than 100 µM and the TGI (M14 melanoma) was greater than 100 µM. For the same molecule, the TGI (SF-295 CNS) was greater than 100 µM, the TGI (NCI-H522 lung) was greater than 100 µM and the TGI (NCI-H226 lung) was greater than 100 µM. It also gave a TGI (RXF 393 renal) greater than 100 µM, a TGI (LOX IMVI melanoma) greater than 100 µM and a TGI (MOLT-4 leukemia) greater than 100 µM. It also gave a TGI (NCI-H23 lung) greater than 100 µM, a TGI (M19-MEL melanoma) greater than 100 µM and a TGI (HOP-62 NSCLC) greater than 100 µM. It also gave a TGI (SNB-19 CNS) greater than 100 µM, a TGI (786-0 renal) greater than 100 µM and a TGI (KM20L2 colon) greater than 100 µM. For the same molecule, the TGI (MALME-3M melanoma) was greater than 100 µM, the TGI (U251 CNS) was greater than 100 µM and the TGI (CAKI-1 renal) was greater than 100 µM. The TGI (HCC-2998 colon) was greater than 100 µM, the TGI (HCT-15 colon) was greater than 55.4 µM and the TGI (SK-MEL-28 melanoma) was greater than 100 µM. It also gave a TGI (SF-268 CNS) greater than 100 µM, a TGI (SNB-75 CNS) greater than 100 µM and a TGI (OVCAR-5 ovarian) greater than 100 µM. It also gave a TGI (SN12C renal) greater than 100 µM, a TGI (RXF-631 renal) greater than 100 µM and a TGI (ACHN renal) greater than 100 µM. For the same molecule, the TGI (SF-539 CNS) was greater than 100 µM, the TGI (SK-MEL-2 melanoma) was greater than 100 µM and the TGI (COLO 205 colon) was 32.2 µM. For the same molecule, the TGI (CCRF-CEM leukemia) was greater than 100 µM, the TGI (UO-31 renal) was greater than 100 µM and the TGI (RPMI-8226 leukemia) was greater than 100 µM. It also gave a TGI (K-562 leukemia) greater than 100 µM, a TGI (KM12 colon) greater than 93.8 µM and a TGI (SW-620 colon) of 20 µM. It also gave a TGI (OVCAR-4 ovarian) greater than 100 µM, a TGI (SK-MEL-5 melanoma) greater than 100 µM and a TGI (HT29 colon) greater than 100 µM. The TGI (SK-OV-3 ovarian) was greater than 100 µM and the TGI (EKVX NSCLC) was greater than 100 µM.
In the case of O=C(NN1C(=O)CS(=O)(=O)C1c1cccc(F)c1)c1ccncc1 (configuration not stated), the TGI (NCI-H460 lung) is reported as greater than 100 µM, the TGI (A498 renal) is reported as greater than 100 µM and the TGI (A549 NSCLC) is reported as greater than 100 µM. It also gave a TGI (DMS 273 small cell lung) greater than 100 µM, a TGI (UACC-257 melanoma) greater than 100 µM and a TGI (HCT-116 colon) greater than 100 µM. For the same molecule, the TGI (DMS 114 small cell lung) was greater than 100 µM, the TGI (DLD-1 colon) was greater than 100 µM and the TGI (TK-10 renal) was greater than 100 µM. The TGI (HL-60(TB) leukemia) was greater than 100 µM, the TGI (LXFL 529 NSCLC) was greater than 100 µM and the TGI (XF 498 CNS) was greater than 100 µM. It also gave a TGI (M14 melanoma) greater than 100 µM, a TGI (SF-295 CNS) greater than 100 µM and a TGI (NCI-H522 lung) greater than 100 µM. For the same molecule, the TGI (NCI-H226 lung) was greater than 100 µM, the TGI (RXF 393 renal) was greater than 100 µM and the TGI (LOX IMVI melanoma) was greater than 100 µM. It also gave a TGI (MOLT-4 leukemia) greater than 100 µM, a TGI (HOP-62 NSCLC) greater than 100 µM and a TGI (SNB-19 CNS) greater than 100 µM. For the same molecule, the TGI (786-0 renal) was greater than 100 µM, the TGI (MALME-3M melanoma) was greater than 100 µM and the TGI (SR leukemia) was greater than 100 µM. For the same molecule, the TGI (CAKI-1 renal) was greater than 100 µM, the TGI (HCC-2998 colon) was greater than 100 µM and the TGI (HCT-15 colon) was greater than 100 µM. The TGI (SK-MEL-28 melanoma) was greater than 100 µM, the TGI (SF-268 CNS) was greater than 100 µM and the TGI (SNB-75 CNS) was greater than 100 µM. It also gave a TGI (HOP-92 NSCLC) greater than 100 µM, a TGI (OVCAR-5 ovarian) greater than 100 µM and a TGI (SN12C renal) greater than 100 µM. It also gave a TGI (RXF-631 renal) greater than 100 µM, a TGI (ACHN renal) greater than 100 µM and a TGI (SK-MEL-2 melanoma) greater than 100 µM. It also gave a TGI (COLO 205 colon) greater than 100 µM, a TGI (RPMI-8226 leukemia) greater than 100 µM and a TGI (KM12 colon) greater than 100 µM. For the same molecule, the TGI (SW-620 colon) was greater than 100 µM, the TGI (OVCAR-4 ovarian) was greater than 100 µM and the TGI (SK-MEL-5 melanoma) was greater than 100 µM. It also gave a TGI (HT29 colon) greater than 100 µM and a TGI (SK-OV-3 ovarian) greater than 100 µM.
